Measurements taken from ChEMBL document CHEMBL5120814, “Molecular Networking-Based Screening Led to the Discovery of a Cyclic Heptadepsipeptide from an Endolichenic Xylaria sp” (J Nat Prod, 2022).

Legend:
HT-29 = experiment: Cytotoxicity against human HT-29 cells assessed as inhibition of cell proliferation incubated for 48 hrs by MTT assay; type: functional, cell-based; settings: HT-29, 48 h
PC-9 = experiment: Cytotoxicity against human PC-9 cells assessed as inhibition of cell proliferation incubated for 48 hrs by MTT assay; type: functional, cell-based; settings: PC-9, 48 h
BT-549 [1] = experiment: Cytotoxicity against human BT-549 cells assessed as inhibition of cell proliferation incubated for 48 hrs by MTT assay; type: functional, cell-based; settings: BT-549, 48 h
[2] = Cytotoxicity against human HMLE cells assessed as inhibition of cell proliferation incubated for 48 hrs by MTT assay; type: toxicity, cell-based
BT-549 [3] = experiment: Induction of cell cycle arrest in human BT-549 cells assessed as accumulation at G2/M phase at 5 uM incubated for 24 hrs by propidium iodide staining based flow cytometry (reference value: 22.59%); type: functional
BT-549 [4] = experiment: Potency index, ratio of cisplatin IC50 to test compound IC50 for cytotoxicity against human BT-549 cells; type: functional
BT-549 [5] = experiment: Induction of cell cycle arrest in human BT-549 cells assessed as accumulation at S phase at 5 uM incubated for 24 hrs by propidium iodide staining based flow cytometry (reference value: 50.87%); type: functional
RKO = experiment: Cytotoxicity against human RKO cells assessed as inhibition of cell proliferation incubated for 48 hrs by MTT assay; type: functional, cell-based
BT-549 [6] = experiment: Induction of cell cycle arrest in human BT-549 cells assessed as accumulation at G0/G1 phase at 5 uM incubated for 24 hrs by propidium iodide staining based flow cytometry (reference value: 22.97%); type: functional
NCI-H1299 = experiment: Cytotoxicity against human NCI-H1299 cells assessed as inhibition of cell proliferation incubated for 48 hrs by MTT assay; type: functional, cell-based; settings: NCI-H1299, 48 h
[7] = Selectivity ratio of IC50 for cytotoxicity against human HMLE cells to IC50 for cytotoxicity against human BT-549 cells; type: toxicity, cell-based; settings: HMLE cells and BT-549 cells, read-out: Ratio IC50

CC[C@H](C)[C@H]1NC(=O)[C@@H](CC(C)C)NC(=O)[C@@H](CC(C)C)N(C)C(=O)[C@@H]2CCCN2C(=O)[C@H](CC(C)C)NC(=O)[C@H](Cc2ccccc2)OC(=O)[C@@H]2CCCN2C1=O
IC50 (HT-29): 2500 nM | IC50 (PC-9): 2500 nM | IC50 (BT-549 [1]): 2500 nM | IC50 at 48 h [2]: 7300 nM | Activity (BT-549 [3]): 18.34% | Ratio IC50 (BT-549 [4]): 3.4 | Activity (BT-549 [5]): 32.49% | IC50 (RKO): 9500 nM | Activity (BT-549 [6]): 41.84% | IC50 (NCI-H1299): 2500 nM | selectivity ratio [7]: 3
